Data as given in publication PMC3274588 (The Plant Journal, 2011).
Residue numbers refer to the chain shown, from its start. Where two headings read alike, the source gives them in different places.

Assays:
[1] = target: T1, ACD2 (ACCELERATED CELL DEATH 2; ACD2^40-320; Red Chlorophyll Catabolite Reductase) (Arabidopsis thaliana, UniProt Q8LDU4); assay: intrinsic tryptophan fluorescence quenching; type: binding
T1 sequence (Q8LDU4 40-319): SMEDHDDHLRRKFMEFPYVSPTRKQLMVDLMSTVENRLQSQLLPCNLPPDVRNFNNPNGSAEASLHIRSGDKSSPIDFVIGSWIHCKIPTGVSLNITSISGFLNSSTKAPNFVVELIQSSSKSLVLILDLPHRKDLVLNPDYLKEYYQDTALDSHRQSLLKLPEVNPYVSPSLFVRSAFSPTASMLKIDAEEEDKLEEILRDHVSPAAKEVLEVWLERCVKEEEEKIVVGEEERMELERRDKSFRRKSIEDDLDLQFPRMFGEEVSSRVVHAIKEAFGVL

[2] = target: T2, ACD2 (ACCELERATED CELL DEATH 2; ACD2^40-320; Red Chlorophyll Catabolite Reductase) (Arabidopsis thaliana, UniProt Q8LDU4, E154A/D291H); assay: intrinsic tryptophan fluorescence quenching; type: binding; details: 0.1 μM protein, 50 mM Na2HPO4 pH 8.0, 25 mM NaCl, 22°C, excitation 296 nm
T2 sequence (Q8LDU4 40-319 E154A/D291H): T1 sequence (Q8LDU4 40-319) with E115A, D252H

Row | Compound | Kd [1] | Kd [2] | Kd ([1]; 0.1 μM protein, 50 mM Na2HPO4 pH 8.0, 25 mM NaCl, 22°C, excitation 296 nm)
1 | C=CC1=C(C)c2cc3[nH]c(cc4nc(cc5[nH]c(cc1n2)c(C)c5CCC(=O)O)C(CCC(=O)O)=C4C)c(C)c3C=C [PPIX] | 310 ± 20 nM | – | –
2 | C=CC1=C(C)/C(=C/C2=NC(=C3\c4[nH]c(Cc5[nH]c(C=O)c(C)c5CC)c(C)c4C(=O)[C@@H]3C(=O)OC)/[C@@H](CCC(=O)O)[C@@H]2C)NC1=O [RCC] | – | 340 ± 30 nM | 360 ± 30 nM
